Assays:
[1] = Determination of VOC content (percentage weight loss of solvent aliquot on heating); format: physicochemical; details: 10 mg aliquot, furnace 35° C. raised 5° C. per minute, held isothermally at 115° C.
Procedure: A series of solvents are evaluated to determine a content of volatile organic compounds (VOCs) and suitability for use in this invention. More specifically, the 1,2-cyclohexanedicarboxylic acid diisononyl ester (Hexamoll® Dinch) of this invention is evaluated as Solvent 1. Twelve additional comparative solvents (Comparative Solvents 1-12) are also evaluated.
After addition of the aliquots to the pans, the pans are placed in a furnace at 35° C. The temperature of the furnace is then raised at a rate of 5° C. per minute and held isothermally at 115° C. When mass loss stabilizes at less than 0.5% for 5 minutes, the temperature is then held at 115° C. for an additional 15 minutes. Total run times average about 80 minutes. The results of the VOC content evaluations are set forth in Table 1 below wherein all values represent percentage weight loss of the aliquot and correlate to approximate VOC content.

[2] = Active component solubility in solvents at 10° C. and 54° C. (visual, HPLC for undissolved samples); details: for Approximate Percent (%) Solubility Determination of Active Components in Solvents (Malathion At 10° C.) / Approximate Percent (%) Solubility Determination of Active Components in Solvents (Malathion At 54° C.): 20 g Malathion in 10 g solvent; for Approximate Percent (%) Solubility Determination of Active Components in Solvents (Malathion At 10° C.) / Approximate Percent (%) Solubility Determination of Active Components in Solvents (Metolachlor At 10° C.): about two weeks at 10° C.; for Approximate Percent (%) Solubility Determination of Active Components in Solvents (Malathion At 10° C.) / Approximate Percent (%) Solubility Determination of Active Components in Solvents (Malathion At 54° C.) / Approximate Percent (%) Solubility Determination of Active Components in Solvents (Metolachlor At 10° C.) / Approximate Percent (%) Solubility Determination of Active Components in Solvents (Metolachlor At 54° C.): totally soluble = no particles visually detectable; for Approximate Percent (%) Solubility Determination of Active Components in Solvents (Malathion At 54° C.) / Approximate Percent (%) Solubility Determination of Active Components in Solvents (Metolachlor At 54° C.): about two weeks at 54° C.; for Approximate Percent (%) Solubility Determination of Active Components in Solvents (Metolachlor At 10° C.) / Approximate Percent (%) Solubility Determination of Active Components in Solvents (Metolachlor At 54° C.): 20 g Metolachlor in 10 g solvent; for miscible in the Solvent 1 up to: active component in Solvent 1 (Examples 1-3)

COC(=O)CCCCC(=O)OC [Comparative Solvent 10, dimethyl adipate]
% Total Weight Loss = VOC Content [1]: 100% | Approximate Percent (%) Solubility Determination of Active Components in Solvents (Malathion At 10° C.) [2]: Totally Soluble | Approximate Percent (%) Solubility Determination of Active Components in Solvents (Malathion At 54° C.) [2]: Totally Soluble | Approximate Percent (%) Solubility Determination of Active Components in Solvents (Metolachlor At 10° C.) [2]: Totally Soluble | Approximate Percent (%) Solubility Determination of Active Components in Solvents (Metolachlor At 54° C.) [2]: Totally Soluble

CC1COC(=O)O1 (stereo not shown) [Comparative Solvent 5, propylene carbonate]
% Total Weight Loss = VOC Content [1]: 100% | Approximate Percent (%) Solubility Determination of Active Components in Solvents (Malathion At 10° C.) [2]: Totally Soluble | Approximate Percent (%) Solubility Determination of Active Components in Solvents (Malathion At 54° C.) [2]: Totally Soluble | Approximate Percent (%) Solubility Determination of Active Components in Solvents (Metolachlor At 10° C.) [2]: Totally Soluble | Approximate Percent (%) Solubility Determination of Active Components in Solvents (Metolachlor At 54° C.) [2]: Totally Soluble

CC(O)CO (stereo not shown) [Comparative Solvent 7, propylene glycol]
% Total Weight Loss = VOC Content [1]: 100% | Approximate Percent (%) Solubility Determination of Active Components in Solvents (Malathion At 10° C.) [2]: Totally Soluble | Approximate Percent (%) Solubility Determination of Active Components in Solvents (Malathion At 54° C.) [2]: Totally Soluble | Approximate Percent (%) Solubility Determination of Active Components in Solvents (Metolachlor At 10° C.) [2]: Totally Soluble | Approximate Percent (%) Solubility Determination of Active Components in Solvents (Metolachlor At 54° C.) [2]: Totally Soluble

CCc1cccc(C)c1N(C(=O)CCl)C(C)COC (stereo not shown) [Metolachlor]
miscible in the Solvent 1 up to [2]: approximately 66 weight percent

CCOC(=O)CC(SP(=S)(OC)OC)C(=O)OCC (stereo not shown) [Malathion]
miscible in the Solvent 1 up to [2]: approximately 66 weight percent

CC(C)CCCCCCOC(=O)C1CCCCC1C(=O)OCCCCCCC(C)C (stereo not shown) [Solvent 1, 1,2-cyclohexanedicarboxylic acid diisononyl ester]
% Total Weight Loss = VOC Content [1]: 0.33% | Approximate Percent (%) Solubility Determination of Active Components in Solvents (Malathion At 10° C.) [2]: Totally Soluble | Approximate Percent (%) Solubility Determination of Active Components in Solvents (Malathion At 54° C.) [2]: Totally Soluble | Approximate Percent (%) Solubility Determination of Active Components in Solvents (Metolachlor At 10° C.) [2]: Totally Soluble | Approximate Percent (%) Solubility Determination of Active Components in Solvents (Metolachlor At 54° C.) [2]: Totally Soluble
